Data reported in US20110306606A1, “NOVEL 2,6-SUBSTITUTED-3-NITROPYRIDINE DERIVATIVE, METHOD FOR PREPARING SAME, AND PHARMACEUTICAL COMPOSITION INCLUDING SAME” (priority 2008, published 2011).
Where two headings read alike, the source gives them in different places.

Tests used:
[1] = system: Osteoblasts (Calvarial cells); details: ICR, mouse, 72 h, 1 μM
[2] = system: MC3T3-E1 cells; assay: Alkaline phosphatase (ALP) activity in MC3T3-E1 cells; assay type: cell-based; details: 1 μM compound, 3 days; for activity at 1 µM: Mus musculus, 72 h, MC3T3-E1 cell, read-out: ALP activity (1 μM, % of Control) MC3T3-E1 cell
Description: Differentiation and activity of osteoblasts were indirectly evaluated by measuring an ALP activity having a close relationship with osteogenesis.
Osteoblasts (Calvarial cells) prepared in Experimental Example 1 and MC3T3-E1 cells (available from RIKEN Cell Bank, Japan) were collected in α-MEM supplemented with 10% FBS, followed by cell counting. The cells were dispensed into 24-well cultureware at a density of 2×10^4 cells/well. After culturing of the cells for 24 hours, the culture media were discarded and replaced with fresh media in which test compounds were diluted to a concentration of 1 μM (1 mL/well). In addition, the vehicle control group containing 0.1% DMSO was also treated. […] When the experiment was terminated, the supernatant was removed and the cells were washed three times with cold phosphate buffer at 4°. 0.2% Triton X-100 was added to the washed cells which were then subjected to three cycles of freezing at −70° and thawing at room temperature for the complete lysis of cells. The cell extracts were pooled and centrifuged to collect the cell supernatant which was used for the measurement of ALP activity and proteins. The protein concentration was measured using a BCA assay kit (manufactured by Sigma-Aldrich). For the measurement of ALP activity, p-nitrophenylphosphate was added to the cell supernatant which was then incubated at 37° for 30 minutes, and the reaction was terminated with the addition of 50 μL of 0.2N sodium hydroxide. The standard curve was plotted at the absorbance of 405 nm using p-nitrophenol as a standard material and then the absorbance of test materials thus reacted was measured to determine the production amount of p-nitrophenol.
The ALP activity was calculated by dividing the amount of p-nitrophenol produced from each test material by the protein amount and the reaction time. Therefore, the unit of ALP activity was given in terms of p-nitrophenol/μg protein/min. The results are given in Tables 28-1 and 28-2 where the ALP activity unit of each test material was given in terms of % change through the comparison between the individual test materials and the vehicle control group.

[3] = system: formation of osteoclasts in co-culture of bone marrow cells and osteoblasts; assay: Osteoclastogenesis inhibition via co-culture system (TRAP staining); assay type: cell-based, mice; details: Mus musculus, Osteoclast, 168 h; 1 μM compound, 7 days co-culture, TRAP-positive multinucleated osteoclasts vs vehicle control
Procedure, shortened: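 Bone marrow cells from male ddY mice were co-cultured with osteoblasts for 7 days in α-MEM/10% FBS with 10^−8 M 1α,25-dihydroxyvitamin D3 and dexamethasone. Compound was present at 1 μM final and refreshed every 2–3 days. TRAP-positive cells with 6–7 nuclei were counted, with % inhibition relative to DMSO vehicle (n=4).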

[4] = system: Osteoblasts (Calvarial cells); assay: Alkaline phosphatase (ALP) activity in osteoblasts (Calvarial cells); assay type: cell-based, mice; details: Mus musculus, 72 h; 1 μM compound, 3 days, Calvarial cell; read-out: ALP activity (1 μM, % of Control) Calvarial cell
Procedure, shortened: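 Primary calvarial osteoblasts or MC3T3-E1 cells in α-MEM with 10% FBS were treated with 1 μM compound, against a 0.1% DMSO vehicle. Cell lysates were incubated with p-nitrophenylphosphate at 37° for 30 minutes and read at 405 nm. ALP activity was expressed as p-nitrophenol/μg protein/min and reported as % change versus vehicle.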

[5] = system: Osteoblasts (Calvarial cells); assay: Cytotoxicity test (MTT); details: 1 μM compound, 72 hours, in comparison with vehicle control

| Compound | Cell viability (%) Calvarial cell [1] [%] | activity at 1 µM [2] [%] | inhibition at 1 µM [3] [%] | activity at 1 µM [4] [%] | ALP activity (1 μM, % of Control) MC3T3-E1 cell [2] | Cell viability (%) Calvarial cell [5] [%] |
| --- | --- | --- | --- | --- | --- | --- |
| Cc1ccc(Nc2nc(NCCCn3ccnc3)ccc2[N+](=O)[O-])cc1 [Compound 9, 2-(4-methylphenylamino)-6-[(3-imidazol-1-yl)propylamino]-3-nitropyridine] | 121 | 175 | 93 | 129 | – | – |
| COc1ccc(Nc2nc(NC(C)C)ccc2[N+](=O)[O-])cc1 [Compound 16, 2-(4-methoxyphenylamino)-6-(isopropylamino)-3-nitropyridine] | 100 | 118 | – | – | – | – |
| COc1ccc(Nc2nc(N(C)CC3OCCO3)ccc2[N+](=O)[O-])cc1 [Compound 18, 2-(4-methoxyphenylamino)-6-[(N-[1,3]-dioxolan-2-ylmethyl)methylamino]-3-nitropyridine] | – | – | – | – | 113 % of Control | 91 |
| COc1ccc(Nc2nc(N3CCN=C3C)ccc2[N+](=O)[O-])cc1 [Compound 20, 2-(4-methoxyphenylamino)-6-[(2-methyl-4,5-dihydro)imidazol-1-yl]-3-nitropyridine] | – | – | – | – | 124 % of Control | – |
| COc1ccc(Nc2nc(-n3ccnc3C(C)C)ccc2[N+](=O)[O-])cc1 [Compound 21, 2-(4-methoxyphenylamino)-6-[(2-isopropyl)imidazol-1-yl]-3-nitropyridine] | 90 | 124 | – | – | – | – |
| COc1ccc(Nc2nc(NCc3ccncc3)ccc2[N+](=O)[O-])cc1 [Compound 22, 2-(4-methoxyphenylamino)-6-[(4-pyridyl)methylamino]-3-nitropyridine] | 92 | 123 | – | 121 | – | – |
| CC(C)(C)c1ccc(Nc2nc(NCCCn3ccnc3)ccc2[N+](=O)[O-])cc1 [Compound 39, 2-[4-(t-butyl)phenylamino]-6-[(3-imidazol-1-yl)propylamino]-3-nitropyridine] | 111 | 175 | 98 | – | – | – |
| CNc1ccc([N+](=O)[O-])c(Nc2ccc(C#N)cc2)n1 [Compound 45, 2-(4-cyanophenylamino)-6-(methylamino)-3-nitropyridine] | 89 | 124 | – | 133 | – | – |
| N#Cc1ccc(Nc2nc(N3CCC(O)CC3)ccc2[N+](=O)[O-])cc1 [Compound 47, 2-(4-cyanophenylamino)-6-(4-hydroxypiperidino)-3-nitropyridine] | 88 | 117 | – | 111 | – | – |
| CC(C)c1nccn1-c1ccc([N+](=O)[O-])c(Nc2ccc(C#N)cc2)n1 [Compound 49, 2-(4-cyanophenylamino)-6-[(2-isopropyl)imidazol-1-yl]-3-nitropyridine] | 96 | 122 | – | 112 | – | – |
| O=[N+]([O-])c1ccc(NCc2ccncc2)nc1Nc1ccc(-n2ccnc2)cc1 [Compound 94, 2-[4-(imidazol-1-yl)phenylamino]-6-[(4-pyridyl)methylamino]-3-nitropyridine] | 85 | 134 | 93 | – | – | – |
| O=[N+]([O-])c1ccc(NCCCn2ccnc2)nc1Nc1ccc(-n2ccnc2)cc1 [Compound 95, 2-[4-(imidazol-1-yl)phenylamino]-6-[(3-imidazol-1-yl)propylamino]-3-nitropyridine] | 93 | 185 | – | 138 | – | – |
| CNc1ccc([N+](=O)[O-])c(Nc2cccc(C(C)=O)c2)n1 [Compound 96, 2-(3-acetylphenylamino)-6-(methylamino)-3-nitropyridine] | 90 | 137 | – | – | – | – |
| CC(=O)c1cccc(Nc2nc(N3CCN=C3C)ccc2[N+](=O)[O-])c1 [Compound 100, 2-(3-acetylphenylamino)-6-[(2-methyl-4,5-dihydro)imidazol-1-yl]-3-nitropyridine] | – | – | – | – | 126 % of Control | 91 |
| CC(=O)c1cccc(Nc2nc(-n3ccnc3C(C)C)ccc2[N+](=O)[O-])c1 [Compound 101, 2-(3-acetylphenylamino)-6-[(2-isopropyl)imidazol-1-yl]-3-nitropyridine] | 92 | 123 | – | – | – | – |
| CC(=O)c1cccc(Nc2nc(NCc3cccnc3)ccc2[N+](=O)[O-])c1 [Compound 102, 2-(3-acetylphenylamino)-6-[(3-pyridyl)methylamino]-3-nitropyridine] | 92 | 126 | – | 122 | – | – |
| CC(=O)c1cccc(Nc2nc(NCc3ccncc3)ccc2[N+](=O)[O-])c1 [Compound 103, 2-(3-acetylphenylamino)-6-[(4-pyridyl)methylamino]-3-nitropyridine] | 93 | 151 | 74 | – | – | – |
| CNc1ccc([N+](=O)[O-])c(Nc2ccc(N3CCOCC3)cc2)n1 [Compound 108, 2-(4-morpholinophenylamino)-6-(methylamino)-3-nitropyridine] | 100 | 111 | – | – | – | – |
| O=[N+]([O-])c1ccc(N2CCC(O)CC2)nc1Nc1ccc(N2CCOCC2)cc1 [Compound 112, 2-(4-morpholinophenylamino)-6-(4-hydroxypiperidino)-3-nitropyridine] | 103 | 148 | – | 122 | – | – |
| O=[N+]([O-])c1ccc(NCc2cccnc2)nc1Nc1ccc(N2CCOCC2)cc1 [Compound 115, 2-(4-morpholinophenylamino)-6-[(3-pyridyl)methylamino]-3-nitropyridine] | – | 148 | 89 | 127 | – | – |
| O=[N+]([O-])c1ccc(NCCCn2ccnc2)nc1Nc1ccc(N2CCOCC2)cc1 [Compound 119, 2-(4-morpholinophenylamino)-6-[(3-imidazol-1-yl)propylamino]-3-nitropyridine] | 107 | 167 | – | – | – | – |
| CNc1ccc([N+](=O)[O-])c(Nc2ccc(-c3csc(C)n3)cc2)n1 [Compound 132, 2-[4-(2-methylthiazol-4-yl)phenylamino]-6-(methylamino)-3-nitropyridine] | 101 | – | 80 | 198 | – | – |
| Cc1nc(-c2ccc(Nc3nc(N4CCC(O)CC4)ccc3[N+](=O)[O-])cc2)cs1 [Compound 135, 2-[4-(2-methylthiazol-4-yl)phenylamino]-6-(4-hydroxypiperidino)-3-nitropyridine] | 106 | – | 93 | 113 | – | – |
| Cc1nc(-c2ccc(Nc3nc(NCc4cccnc4)ccc3[N+](=O)[O-])cc2)cs1 [Compound 138, 2-[4-(2-methylthiazol-4-yl)phenylamino]-6-[(3-pyridyl)methylamino]-3-nitropyridine] | 94 | – | 98 | 121 | – | – |
| Cc1nc(-c2ccc(Nc3nc(NCc4ccncc4)ccc3[N+](=O)[O-])cc2)cs1 [Compound 139, 2-[4-(2-methylthiazol-4-yl)phenylamino]-6-[(4-pyridyl)methylamino]-3-nitropyridine] | 95 | – | 99 | 122 | – | – |
| Cc1nc(-c2ccc(Nc3nc(N4CCOCC4)ccc3[N+](=O)[O-])cc2)cs1 [Compound 145, 2-[4-(2-methylthiazol-4-yl)phenylamino]-6-morpholino-3-nitropyridine] | 96 | – | 94 | 117 | – | – |
